Test results reported in ChEMBL document CHEMBL5303573, “Mapping human microbiome drug metabolism by gut bacteria and their genes” (Nature, 2019).

Tested on: not given
Details: enterocloster bolteae, 12 h, 2 µM

Row | Structure (SMILES) | Bacterial Biotransformation
1 | CC(=O)OCC(=O)[C@@]12N=C(C)O[C@@H]1C[C@H]1[C@@H]3CCC4=CC(=O)C=C[C@]4(C)[C@H]3[C@@H](O)C[C@@]12C [DEFLAZACORT] | Compound metabolized
2 | CC(=O)Oc1ccc(C(c2ccc(OC(C)=O)cc2)c2ccccn2)cc1 [BISACODYL] | Compound metabolized
3 | CC(=O)SCC(Cc1ccccc1)C(=O)NCC(=O)OCc1ccccc1 (stereo not drawn) [RACECADOTRIL] | Compound NOT metabolized

Tested on: not listed separately
Experiment: The drug is tested on Clostridium sp. strain: fecal isolate for biotransformation. The drug concentrations were measured before and after a 12-h incubation by liquid-chromatography-coupled mass spectrometry (LC–MS)
Details: 2 µM

Row | Structure (SMILES) | Bacterial Biotransformation
4 | CC(=O)OCC(=O)[C@@]12N=C(C)O[C@@H]1C[C@H]1[C@@H]3CCC4=CC(=O)C=C[C@]4(C)[C@H]3[C@@H](O)C[C@@]12C [DEFLAZACORT] | Compound metabolized
5 | CC(=O)Oc1ccc(C(c2ccc(OC(C)=O)cc2)c2ccccn2)cc1 [BISACODYL] | Compound metabolized
6 | CC(=O)SCC(Cc1ccccc1)C(=O)NCC(=O)OCc1ccccc1 (stereo not drawn) [RACECADOTRIL] | Compound metabolized

Tested on: not listed separately
Experiment: The drug is tested on Clostridium symbiosum strain: ATCC14940 for biotransformation. The drug concentrations were measured before and after a 12-h incubation by liquid-chromatography-coupled mass spectrometry (LC–MS)
Details: 2 µM

Row | Structure (SMILES) | Bacterial Biotransformation
7 | CC(=O)OCC(=O)[C@@]12N=C(C)O[C@@H]1C[C@H]1[C@@H]3CCC4=CC(=O)C=C[C@]4(C)[C@H]3[C@@H](O)C[C@@]12C [DEFLAZACORT] | Compound metabolized
8 | CC(=O)Oc1ccc(C(c2ccc(OC(C)=O)cc2)c2ccccn2)cc1 [BISACODYL] | Compound metabolized
9 | CC(=O)SCC(Cc1ccccc1)C(=O)NCC(=O)OCc1ccccc1 (stereo not drawn) [RACECADOTRIL] | Compound NOT metabolized

Target: T1, Acetyl esterase (Acetylxylosidase) (Bacteroides thetaiotaomicron, UniProt Q8ABF8)
T1 sequence (Q8ABF8 whole entry): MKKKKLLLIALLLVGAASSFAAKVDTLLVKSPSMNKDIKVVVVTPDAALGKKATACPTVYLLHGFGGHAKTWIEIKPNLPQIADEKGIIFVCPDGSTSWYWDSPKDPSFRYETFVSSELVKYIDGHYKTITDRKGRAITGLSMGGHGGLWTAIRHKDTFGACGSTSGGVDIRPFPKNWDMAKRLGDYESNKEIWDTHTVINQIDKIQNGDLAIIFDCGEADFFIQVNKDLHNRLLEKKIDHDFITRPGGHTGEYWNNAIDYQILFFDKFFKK
Experiment: (§1) The drug is tested on Bacteroides thetaiotaomicron strain: VPI-5482 for biotransformation. The drug concentrations were measured before and after a 12-h incubation by liquid-chromatography-coupled mass spectrometry (LC–MS)
Assay type: ADME
Design: dose 2 uM
Details: 2 µM

Row | Structure (SMILES) | Bacterial Biotransformation
10 | CC(=O)OCC(=O)[C@@]12N=C(C)O[C@@H]1C[C@H]1[C@@H]3CCC4=CC(=O)C=C[C@]4(C)[C@H]3[C@@H](O)C[C@@]12C [DEFLAZACORT] | Compound NOT metabolized
11 | CC(=O)Oc1ccc(C(c2ccc(OC(C)=O)cc2)c2ccccn2)cc1 [BISACODYL] | Compound metabolized
12 | CC(=O)SCC(Cc1ccccc1)C(=O)NCC(=O)OCc1ccccc1 (stereo not drawn) [RACECADOTRIL] | Compound metabolized

Target: T2, 3-oxo-5-alpha-steroid 4-dehydrogenase (Bacteroides thetaiotaomicron, UniProt Q8A618)
T2 sequence (Q8A618 whole entry): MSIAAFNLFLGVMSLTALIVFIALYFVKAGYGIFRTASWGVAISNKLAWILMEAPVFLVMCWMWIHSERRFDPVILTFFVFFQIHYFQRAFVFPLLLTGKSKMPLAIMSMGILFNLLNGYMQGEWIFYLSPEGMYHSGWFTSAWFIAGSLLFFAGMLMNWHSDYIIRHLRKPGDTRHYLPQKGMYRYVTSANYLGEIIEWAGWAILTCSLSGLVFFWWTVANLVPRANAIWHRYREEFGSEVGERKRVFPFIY
Experiment: as §1
Assay type: ADME
Design: dose 2 uM
Details: 2 µM

Row | Structure (SMILES) | Bacterial Biotransformation
13 | CC(=O)OCC(=O)[C@@]12N=C(C)O[C@@H]1C[C@H]1[C@@H]3CCC4=CC(=O)C=C[C@]4(C)[C@H]3[C@@H](O)C[C@@]12C [DEFLAZACORT] | Compound NOT metabolized
14 | CC(=O)Oc1ccc(C(c2ccc(OC(C)=O)cc2)c2ccccn2)cc1 [BISACODYL] | Compound NOT metabolized
15 | CC(=O)SCC(Cc1ccccc1)C(=O)NCC(=O)OCc1ccccc1 (stereo not drawn) [RACECADOTRIL] | Compound NOT metabolized

Tested on: not given
Details: bacteroides fragilis, 12 h, 2 µM

Row | Structure (SMILES) | Bacterial Biotransformation
16 | CC(=O)OCC(=O)[C@@]12N=C(C)O[C@@H]1C[C@H]1[C@@H]3CCC4=CC(=O)C=C[C@]4(C)[C@H]3[C@@H](O)C[C@@]12C [DEFLAZACORT] | Compound metabolized
17 | CC(=O)Oc1ccc(C(c2ccc(OC(C)=O)cc2)c2ccccn2)cc1 [BISACODYL] | Compound metabolized
18 | CC(=O)SCC(Cc1ccccc1)C(=O)NCC(=O)OCc1ccccc1 (stereo not drawn) [RACECADOTRIL] | Compound metabolized

Tested on: not listed separately
Experiment: The drug is tested on Eggerthella lenta strain: ATCC25559 for biotransformation. The drug concentrations were measured before and after a 12-h incubation by liquid-chromatography-coupled mass spectrometry (LC–MS)
Details: 2 µM

Row | Structure (SMILES) | Bacterial Biotransformation
19 | CC(=O)OCC(=O)[C@@]12N=C(C)O[C@@H]1C[C@H]1[C@@H]3CCC4=CC(=O)C=C[C@]4(C)[C@H]3[C@@H](O)C[C@@]12C [DEFLAZACORT] | Compound metabolized
20 | CC(=O)Oc1ccc(C(c2ccc(OC(C)=O)cc2)c2ccccn2)cc1 [BISACODYL] | Compound metabolized
21 | CC(=O)SCC(Cc1ccccc1)C(=O)NCC(=O)OCc1ccccc1 (stereo not drawn) [RACECADOTRIL] | Compound NOT metabolized

Target: T3, Pyridine nucleotide-disulfide oxidoreductase (Collinsella aerofaciens, UniProt A4EBM5)
T3 sequence (A4EBM5 whole entry): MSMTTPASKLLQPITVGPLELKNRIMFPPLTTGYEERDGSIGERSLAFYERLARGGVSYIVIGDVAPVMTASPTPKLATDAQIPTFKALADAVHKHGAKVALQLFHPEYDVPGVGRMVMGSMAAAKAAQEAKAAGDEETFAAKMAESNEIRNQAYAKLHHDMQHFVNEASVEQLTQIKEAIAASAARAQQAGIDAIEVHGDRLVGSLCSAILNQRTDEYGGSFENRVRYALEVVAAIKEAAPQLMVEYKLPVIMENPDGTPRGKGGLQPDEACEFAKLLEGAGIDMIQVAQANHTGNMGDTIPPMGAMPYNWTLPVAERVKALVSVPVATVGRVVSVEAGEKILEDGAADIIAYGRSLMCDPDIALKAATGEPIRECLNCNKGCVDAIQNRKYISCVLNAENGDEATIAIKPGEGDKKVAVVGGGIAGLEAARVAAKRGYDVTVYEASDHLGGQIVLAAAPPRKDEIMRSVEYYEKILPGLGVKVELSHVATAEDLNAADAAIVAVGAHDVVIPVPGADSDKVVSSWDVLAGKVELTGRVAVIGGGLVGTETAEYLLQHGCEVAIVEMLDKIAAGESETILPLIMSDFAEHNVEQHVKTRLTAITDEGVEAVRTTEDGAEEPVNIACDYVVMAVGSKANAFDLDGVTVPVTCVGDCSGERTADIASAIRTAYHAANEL
Experiment: (§2) The drug is tested on Collinsella aerofaciens strain: ATCC25986 for biotransformation. The drug concentrations were measured before and after a 12-h incubation by liquid-chromatography-coupled mass spectrometry (LC–MS)
Assay type: ADME
Design: dose 2 uM
Details: 2 µM

Row | Structure (SMILES) | Bacterial Biotransformation
22 | CC(=O)OCC(=O)[C@@]12N=C(C)O[C@@H]1C[C@H]1[C@@H]3CCC4=CC(=O)C=C[C@]4(C)[C@H]3[C@@H](O)C[C@@]12C [DEFLAZACORT] | Compound NOT metabolized
23 | CC(=O)Oc1ccc(C(c2ccc(OC(C)=O)cc2)c2ccccn2)cc1 [BISACODYL] | Compound NOT metabolized
24 | CC(=O)SCC(Cc1ccccc1)C(=O)NCC(=O)OCc1ccccc1 (stereo not drawn) [RACECADOTRIL] | Compound NOT metabolized

Target: T4, GDSL-like protein (Collinsella aerofaciens, UniProt A4E7D0)
T4 sequence (A4E7D0 whole entry): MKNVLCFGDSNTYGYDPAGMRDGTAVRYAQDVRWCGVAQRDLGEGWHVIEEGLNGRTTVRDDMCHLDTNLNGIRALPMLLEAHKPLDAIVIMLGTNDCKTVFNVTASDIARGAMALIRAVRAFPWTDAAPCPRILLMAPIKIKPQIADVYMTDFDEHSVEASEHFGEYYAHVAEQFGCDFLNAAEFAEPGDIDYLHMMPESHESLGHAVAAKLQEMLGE
Experiment: as §2
Assay type: ADME
Design: dose 2 uM
Details: 2 µM

Row | Structure (SMILES) | Bacterial Biotransformation
25 | CC(=O)OCC(=O)[C@@]12N=C(C)O[C@@H]1C[C@H]1[C@@H]3CCC4=CC(=O)C=C[C@]4(C)[C@H]3[C@@H](O)C[C@@]12C [DEFLAZACORT] | Compound NOT metabolized
26 | CC(=O)Oc1ccc(C(c2ccc(OC(C)=O)cc2)c2ccccn2)cc1 [BISACODYL] | Compound metabolized
27 | CC(=O)SCC(Cc1ccccc1)C(=O)NCC(=O)OCc1ccccc1 (stereo not drawn) [RACECADOTRIL] | Compound NOT metabolized

Target: T5, Flavodoxin (Collinsella aerofaciens, UniProt A4ED08)
T5 sequence (A4ED08 whole entry): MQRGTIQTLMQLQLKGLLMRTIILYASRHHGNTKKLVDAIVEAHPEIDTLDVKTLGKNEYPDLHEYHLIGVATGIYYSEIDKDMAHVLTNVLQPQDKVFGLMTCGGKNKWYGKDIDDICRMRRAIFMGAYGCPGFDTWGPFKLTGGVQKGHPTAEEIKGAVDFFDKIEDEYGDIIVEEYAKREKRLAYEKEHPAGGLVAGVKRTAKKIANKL
Experiment: as §2
Assay type: ADME
Design: dose 2 uM
Details: 2 µM

Row | Structure (SMILES) | Bacterial Biotransformation
28 | CC(=O)OCC(=O)[C@@]12N=C(C)O[C@@H]1C[C@H]1[C@@H]3CCC4=CC(=O)C=C[C@]4(C)[C@H]3[C@@H](O)C[C@@]12C [DEFLAZACORT] | Compound NOT metabolized
29 | CC(=O)Oc1ccc(C(c2ccc(OC(C)=O)cc2)c2ccccn2)cc1 [BISACODYL] | Compound NOT metabolized
30 | CC(=O)SCC(Cc1ccccc1)C(=O)NCC(=O)OCc1ccccc1 (stereo not drawn) [RACECADOTRIL] | Compound NOT metabolized

Target: T6, Diguanylate cyclase (Collinsella aerofaciens, UniProt A4EB91)
T6 sequence (A4EB91 whole entry): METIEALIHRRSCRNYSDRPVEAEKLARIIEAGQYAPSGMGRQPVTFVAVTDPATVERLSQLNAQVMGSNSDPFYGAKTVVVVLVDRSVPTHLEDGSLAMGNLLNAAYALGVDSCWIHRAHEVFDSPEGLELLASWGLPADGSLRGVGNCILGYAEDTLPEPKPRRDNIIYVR
Experiment: as §2
Assay type: ADME
Design: dose 2 uM
Details: 2 µM

Row | Structure (SMILES) | Bacterial Biotransformation
31 | CC(=O)OCC(=O)[C@@]12N=C(C)O[C@@H]1C[C@H]1[C@@H]3CCC4=CC(=O)C=C[C@]4(C)[C@H]3[C@@H](O)C[C@@]12C [DEFLAZACORT] | Compound NOT metabolized
32 | CC(=O)Oc1ccc(C(c2ccc(OC(C)=O)cc2)c2ccccn2)cc1 [BISACODYL] | Compound NOT metabolized
33 | CC(=O)SCC(Cc1ccccc1)C(=O)NCC(=O)OCc1ccccc1 (stereo not drawn) [RACECADOTRIL] | Compound NOT metabolized

Tested on: not given
Details: bacteroides stercoris, 12 h, 2 µM

Row | Structure (SMILES) | Bacterial Biotransformation
34 | CC(=O)OCC(=O)[C@@]12N=C(C)O[C@@H]1C[C@H]1[C@@H]3CCC4=CC(=O)C=C[C@]4(C)[C@H]3[C@@H](O)C[C@@]12C [DEFLAZACORT] | Compound metabolized
35 | CC(=O)Oc1ccc(C(c2ccc(OC(C)=O)cc2)c2ccccn2)cc1 [BISACODYL] | Compound metabolized
36 | CC(=O)SCC(Cc1ccccc1)C(=O)NCC(=O)OCc1ccccc1 (stereo not drawn) [RACECADOTRIL] | Compound metabolized

Tested on: not listed separately
Experiment: The drug is tested on Bifidobacterium ruminantium strain: fecal isolate for biotransformation. The drug concentrations were measured before and after a 12-h incubation by liquid-chromatography-coupled mass spectrometry (LC–MS)
Details: 2 µM

Row | Structure (SMILES) | Bacterial Biotransformation
37 | CC(=O)OCC(=O)[C@@]12N=C(C)O[C@@H]1C[C@H]1[C@@H]3CCC4=CC(=O)C=C[C@]4(C)[C@H]3[C@@H](O)C[C@@]12C [DEFLAZACORT] | Compound metabolized
38 | CC(=O)Oc1ccc(C(c2ccc(OC(C)=O)cc2)c2ccccn2)cc1 [BISACODYL] | Compound metabolized
